Measured values from patent US12233047B2, “Pharmaceutical combination and use thereof” (ASCENTAGE PHARMA (SUZHOU) CO., LTD., priority 2019, dated 2025).
Where a chain is given by its changes, count along the chain named.

What was measured:
FLT3 (D835H) = target: T1, FLT3 (D835H) (Homo sapiens, UniProt P36888, D835H); test: KINOMEscan kinase binding assay, FLT3 (D835H)
T1 construct: host or cells: T7 phage in E. coli (BL21-derived) or HEK-293
T1 sequence (P36888 27-993 D835H): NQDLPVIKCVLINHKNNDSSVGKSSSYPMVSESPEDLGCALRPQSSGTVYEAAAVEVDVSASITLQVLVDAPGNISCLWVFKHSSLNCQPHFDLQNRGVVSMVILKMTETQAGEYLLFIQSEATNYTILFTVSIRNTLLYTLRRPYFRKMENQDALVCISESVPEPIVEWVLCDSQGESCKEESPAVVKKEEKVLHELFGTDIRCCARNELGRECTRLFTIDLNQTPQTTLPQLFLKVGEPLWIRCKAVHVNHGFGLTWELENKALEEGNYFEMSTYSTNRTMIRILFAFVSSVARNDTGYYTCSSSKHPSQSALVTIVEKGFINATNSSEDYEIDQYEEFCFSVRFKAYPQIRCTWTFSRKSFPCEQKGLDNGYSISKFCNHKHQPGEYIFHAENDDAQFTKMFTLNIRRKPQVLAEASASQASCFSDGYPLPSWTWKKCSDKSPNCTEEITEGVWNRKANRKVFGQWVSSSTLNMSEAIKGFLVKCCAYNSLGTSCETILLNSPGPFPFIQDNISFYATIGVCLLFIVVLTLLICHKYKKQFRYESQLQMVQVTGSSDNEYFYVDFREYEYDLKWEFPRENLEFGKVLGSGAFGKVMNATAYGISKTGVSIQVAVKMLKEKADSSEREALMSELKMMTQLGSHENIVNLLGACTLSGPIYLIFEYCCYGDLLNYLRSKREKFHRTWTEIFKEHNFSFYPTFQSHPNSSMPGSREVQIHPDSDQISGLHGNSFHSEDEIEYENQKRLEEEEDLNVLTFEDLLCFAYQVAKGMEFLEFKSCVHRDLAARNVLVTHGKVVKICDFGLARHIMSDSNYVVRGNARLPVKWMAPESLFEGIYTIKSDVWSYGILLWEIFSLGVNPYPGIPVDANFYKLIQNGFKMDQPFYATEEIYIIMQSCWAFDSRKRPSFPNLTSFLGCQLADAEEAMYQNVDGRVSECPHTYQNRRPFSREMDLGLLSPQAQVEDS
Method: (§1) The kinase assay was conducted using KINOMEscan™.
(§2) Kinase-tagged T7 phage strains were grown in parallel in 24-well blocks in an E. coli host derived from the BL21 strain. E. coli were grown to log-phase and infected with T7 phage from a frozen stock (multiplicity of infection=0.4) and incubated with shaking at 32° C. until lysis (90-150 minutes). The lysates were centrifuged (6,000×g) and filtered (0.2 μm) to remove cell debris. The remaining kinases were produced in HEK-293 cells and subsequently tagged with DNA for qPCR detection. Streptavidin-coated magnetic beads were treated with biotinylated small molecule ligands for 30 minutes at room temperature to generate affinity resins for kinase assays. The liganded beads were blocked with excess biotin and washed with blocking buffer (SeaBlock (Pierce), 1% BSA, 0.05% Tween 20, 1 mM DTT) to remove unbound ligand and to reduce non-specific phage binding. Binding reactions were assembled by combining kinases, liganded affinity beads, and test compound (Compound 23) in 1× binding buffer (20% SeaBlock, 0.17×PBS, 0.05% Tween 20, 6 mM DTT). Test compound were prepared as 40× stocks in 100% DMSO and directly diluted into the assay. All reactions were performed in polypropylene 384-well plates in a final volume of 0.04 ml. […] The kinase concentration in the eluates was measured by qPCR. […]

FLT3 (N841I) = target: T2, FLT3 (N841I) (Homo sapiens, UniProt P36888, N841I); test: KINOMEscan kinase binding assay, FLT3 (N841I)
T2 construct: host or cells: T7 phage in E. coli (BL21-derived) or HEK-293
T2 sequence (P36888 27-993 N841I): T1 sequence (P36888 27-993 D835H) with H809D, N815I
Method: as §1, §2

Cc1ccc(C(=O)Nc2ccc(CN3CCN(C)CC3)c(C(F)(F)F)c2)cc1C#Cc1cnc2[nH]ncc2c1 [Compound 23, 3-(2-(1H-pyrazolo[3,4-b]pyridin-5-yl)ethynyl)-4-methyl-N-(4-((4-methylpiperazin-1-yl)methyl)-3-(trifluoromethyl)phenyl)benzamide]
% Ctrl@10 nM (FLT3 (D835H); 10 nM): 18 % Ctrl
% Ctrl@100 nM (FLT3 (D835H); 100 nM): 2.2 % Ctrl
% Ctrl@10 nM (FLT3 (N841I); 10 nM): 2.9 % Ctrl
% Ctrl@100 nM (FLT3 (N841I); 100 nM): 0.05 % Ctrl
